Data: patent US20240124483A1, “Methods for the Treatment of Fibrotic Disease” (SHY Therapeutics, LLC, priority 2021, published 2024)

Key:
ERK1/2 phosphorylation = experiment: Western ERK1/2 Cell-Based Phosphorylation Assay; conditions: Homo sapiens, PANC-1, 6 hours, EGF 1.5 ng/ml, read-out: % inh of ERK1/2 phosphorylation in PANC-1
Experimental: Cell lines: Human tumor-derived pancreatic cancer cell line Panc-1 was purchased from American Type Culture Collection and grown in complete DMEM-High Glucose, supplemented with penicillin (100 U/mL), streptomycin (100 μg/mL), and 10% heat-inactivated FBS at 37° C. in a humidified incubator with 5% CO2.
(§1) Method: Cells were plated at 350000 cells/well density in a 12-well plate, allowed 3 hours to adhere to the plate, then starved in the appropriate medium in the presence of 0.5% FBS overnight. The small molecules to be tested were added to the cells in the final concentration of 10 μM in the presence of 0.3% DMSO for 6 hours incubation at 37° C. For IC50 value determination, serial dilutions of compounds were added to cells under the same conditions. Next, cells were stimulated with 1.5 ng/ml EGF for 15 minutes then cells were lysed with lysis buffer containing 1% Triton X-100, EDTA, and Halt™ Protease & Phosphatase Inhibitor Cocktail (Thermo Scientific). Protein concentration was assessed by BCA protein assay (Thermo Scientific). Phosphorylation level of ERK1/2 was determined by western blot.
(§2) Western blot protocol: Equal amounts of protein (15-50 μg) were separated by SDS-PAGE and transferred to nitrocellulose membranes (Invitrogen by Thermo Fisher Scientific). The membrane was stained with Ponceau S Stain (Boston BioProducts) to verify uniform protein loading. Membranes were blocked with 10% milk and phosphorylation levels of ERK1/2 were assessed by incubating overnight at 4° C. with anti-phospho-p44/42 (Thr202/Tyr204) antibody (Cell Signaling) followed by HRP-conjugated secondary antibody (Jackson Immunoresearch, West Grove, PA). Bands were incubated in Amersham ECL Prime Western Blotting Detection Reagent (GE Healthcare) and visualized using the ChemiDoc MP imaging system (Bio-Rad).

AKT phosphorylation = experiment: Western AKT Cell-Based Phosphorylation Assay; conditions: Homo sapiens, PANC-1, 6 hours, EGF 1.5 ng/ml, read-out: % inh of AKT phosphorylation in PANC-1
Experimental: Human tumor-derived pancreatic cancer cell line Panc-1 was purchased from American Type Culture Collection and grown in complete DMEM-High Glucose supplemented with penicillin (100 U/mL), streptomycin (100 μg/mL), and 10% heat-inactivated FBS at 37° C. in a humidified incubator with 5% CO2.
as §1, with “C.” for “C. For IC50 value determination, serial dilutions of compounds were added to cells under the same conditions.”, “Akt” for “ERK1/2”
as §2, with “Akt” for “ERK1/2”, “anti-phospho-Akt (Ser473)” for “anti-phospho-p44/42 (Thr202/Tyr204)”

Cdc42 = Cdc42 (Homo sapiens (Human), UniProt P60953); experiment: Cdc42 GTP Binding Domain Inhibition Assay; conditions: read-out: Cdc42: % inh.
Experimental: (§3) The following method was developed as specific assay for cdc42 and Rheb proteins.
(§4) Buffer-I: • 25 mM Tris-HCl, pH 7.4 • 27 mM KCl • 137 mM NaCl • 1 mM MgCl2 • 1 mM DTT
(§5) Buffer-IL: • 50 mM Tris-HCl, pH 7.0 • 1 mM MgCl2 • 1 mM DTT
(§6) The small GTPases proteins cdc42 and Rheb were expressed as His-tagged proteins. For the assay, the cdc42 and Rheb purified small GTPases proteins were diluted in Buffer-I or Buffer-II to a final concentration of 10-30 μg/mL. 200 μL of each diluted protein was added to a nickel-coated 96-well plate and incubated overnight at […]. Then the protein solution was discarded and 200 μL of Buffer-I or Buffer-II was added to each well in the presence of 1% DMSO. Compounds to be tested were added to the protein-coated wells at final concentration of 20 μM, and incubated for 3 hours at room temperature with and without 10-30 μg/mL of Sos added to the final hour of the incubation. When performing IC50 measurements a serial dilution of all tested concentrations was added. Then Cy3-GTP or Cy5-GTP was added to each well to a final concentration of 100 nM. The labeled GTP was incubated for 45 minutes at room temperature. Following GTP incubation, wells were washed 3× in Buffer-I or Buffer-II and 200 μL of Buffer-I or Buffer-II was added to each well. Following washes, the amount of bound labeled-GTP was measured using a SpectraMax M3 (Molecular Devices).

Rheb = Rheb (Homo sapiens (Human), UniProt Q15382); experiment: Rheb GTP Binding Domain Inhibition Assay; conditions: read-out: Rheb: % inh.
Experimental: as §3, §4, §5, §6

Cdc42, sequence (P60953 whole entry, species assumed, the tested form may be a part): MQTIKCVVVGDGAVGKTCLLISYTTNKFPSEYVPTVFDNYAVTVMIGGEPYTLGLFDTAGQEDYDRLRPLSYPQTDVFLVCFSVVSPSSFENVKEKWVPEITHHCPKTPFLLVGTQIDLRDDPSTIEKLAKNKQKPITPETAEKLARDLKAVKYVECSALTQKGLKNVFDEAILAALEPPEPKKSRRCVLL
Rheb, sequence (Q15382 whole entry, species assumed, the tested form may be a part): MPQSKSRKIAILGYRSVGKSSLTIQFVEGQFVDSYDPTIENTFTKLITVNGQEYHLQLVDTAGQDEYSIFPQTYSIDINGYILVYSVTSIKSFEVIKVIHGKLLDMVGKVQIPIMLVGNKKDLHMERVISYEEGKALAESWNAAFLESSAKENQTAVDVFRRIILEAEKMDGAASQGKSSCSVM

Structure (SMILES)	inhibition at 10 µM (ERK1/2 phosphorylation) [%]	inhibition at 10 µM (AKT phosphorylation) [%]	inhibition at 20 µM (Cdc42) [%]	inhibition at 20 µM (Rheb) [%]
COc1cc(-c2sc3nc(-c4nccn4C)nc(N[C@@H]4CC[C@H](OC)C4)c3c2-c2ccccc2)ccn1 (racemic) [Compound 44, rac-N-((1R,3S)-3-Methoxycyclopentyl)-6-(2-methoxypyridin-4-yl)-2-(1-methyl-1H-imidazol-2-yl)-5-phenylthieno[2,3-d]pyrimidin-4-amine]	46 to 75	76 to 100	1 to 25	26 to 45
COc1cc(-c2sc3nc(-c4nccn4C)nc(N[C@@H]4CC[C@@H](OC)C4)c3c2-c2ccccc2)ccn1 (racemic) [Compound 47, N-((1R,3R)-3-Methoxycyclopentyl)-6-(2-methoxypyridin-4-yl)-2-(1-methyl-1H-imidazol-2-yl)-5-phenylthieno[2,3-d]pyrimidin-4-amine]	76 to 100	76 to 100	46 to 75	76 to 100
COc1cccc(-c2sc3nc(-c4nccn4C)nc(N[C@H]4C[C@H](OC)C4)c3c2-c2ccccc2)c1F [Compound 40, 6-(2-Fluoro-3-methoxyphenyl)-N-((1r,3r)-3-methoxycyclobutyl)-2-(1-methyl-1H-imidazol-2-yl)-5-phenylthieno[2,3-d]pyrimidin-4-amine]	76 to 100	76 to 100	26 to 45	76 to 100
COc1nccc(-c2sc3nc(-c4nccn4C)nc(N[C@H]4C[C@H](OC)C4)c3c2-c2ccccc2)c1F [Compound 45, 6-(3-Fluoro-2-methoxypyridin-4-yl)-N-((1r,3r)-3-methoxycyclobutyl)-2-(1-methyl-1H-imidazol-2-yl)-5-phenylthieno[2,3-d]pyrimidin-4-amine]	76 to 100	76 to 100	46 to 75	76 to 100
COc1cc(-c2sc3nc(-c4nccn4C)nc(N[C@H]4C[C@H](OC)C4)c3c2-c2ccccc2)ccn1 [Compound 46, N-((1r,3r)-3-Methoxycyclobutyl)-6-(2-methoxypyridin-4-yl)-2-(1-methyl-1H-imidazol-2-yl)-5-phenylthieno[2,3-d]pyrimidin-4-amine]	76 to 100	1 to 25	46 to 75	76 to 100
